Reference: US20110288052A1, “NOVEL COMPOUNDS, PHARMACEUTICAL COMPOSITIONS CONTAINING SAME, AND METHODS OF USE FOR SAME” (priority 2008, published 2011)
Values after ≈ are worked out from the molar mass of the structure shown.

Tests used:
viral HIV protease = viral HIV protease (Human immunodeficiency virus type 1 group M subtype B, UniProt P04585); details: cited from earlier work
Vero cells = details: cited from earlier work
Hela cells = details: cited from earlier work
Raji cells = details: cited from earlier work
[1] = molecular target: rat liver acyl-CoA synthetase; details: read-out: 50% inhibition of rat liver acyl-CoA synthetase (converted); cited from earlier work
[2] = test system: MCF-7 human breast cancer cells (fatty acid oxidation pathway activity); assay: Fatty acid oxidation ([14C]palmitate to acid soluble products); type: cell-based
Protocol: Measurement of Fatty Acid Oxidation and Determination of SC150 of Compounds This assay measures the degradation of [^14C]palmitate into acid soluble products and is a measure of fatty acid oxidation pathway activity in vitro. It is utilized to measure fatty acid oxidation in vitro. MCF-7 human breast cancer cells cultured as above, are plated at 2.5×10^5 cells per well in 24-well plates. Following overnight incubation, the compounds to be tested, solubilized in DMSO, are added at […], 0.39, 1.56, 6.25, 25, and 100 μg/ml in triplicate, with lower concentrations tested if necessary. DMSO is added to triplicate wells for a vehicle control. C75 is run at 5 and 10 μg/ml in triplicate as positive controls. After 1 hour of incubation, medium is removed 100 uM of [^14C] palmitate in cyclodextran and 200 uM carnitine in serum free medium (250 μl volume) is added to each well. After 30 minutes of additional incubation, the reaction is stopped by addition of 2.6N HClO4. Contents of each well are transferred to 1.5 ml Eppendorf tubes and 4N KOH is added. The tubes are incubated for 30 minutes at 60° C. 1 M NaAcetate and 3N H2SO4 is added to each tube and vortexed. The tubes are centrifuged at 1000 rpm for 5 minutes at RT. 250 μl of the supernatant is transferred to a 2 ml eppendorf tube. To each tube is added: 938 μl of chloroform:methanol (1:1), 468 μl chloroform and 281 μl of deionized water. The tubes are vortexed and centrifuged at 1000 rpm for 5 minutes at RT. 750 μl of the upper phase is transferred into a scintillation vial 5 ml of scintillant is added and vials are counted for 1 minute for ^14C. The Beckman Scintillation counter calculates the average cpm values for triplicates. The SC150 for the compounds is defined as the concentration of drug leading to a 150% increase in production of acid soluble products of [^14C] palmitate as compared to untreated controls. This is determined by plotting the average cpm for each inhibitor concentration tested, performing linear regression and computing the best-fit line, r^2 values, and 95% confidence intervals. The average cpm values are computed by the Beckman scintillation counter (Model LS6500) for each compound concentration. Computation of linear regression, best-fit line, r^2, and 95% confidence intervals are calculated using Prism Version 3.0 (Graph Pad Software). If a compound fails to achieve this 150% threshold it is considered negative. The maximum value achieved is also reported (FAO Max).

Weight loss screen = type: in vivo, Balb/C mice; details: 60 mg/ml (so in the source), day 1
Protocol: Weight Loss Screen Balb/C mice (Jackson Labs) are utilized for the initial weight loss screening. Animals are housed in temperature and 12 hour day/night cycle rooms and fed mouse chow and water ad lib. Three mice are utilized for each compound tested with vehicle controls in triplicate per experiment. For the experiments, mice are housed separately for each compound tested three mice to a cage. Compounds are diluted in DMSO at 10 mg/ml and mice are injected intraperitoneally with 60 mg/kg in approximately 100 μl of DMSO or with vehicle alone. Mice are observed and weighed daily; average weights and standard errors are computed with Excel (Microsoft). The experiment continues until treated animals reach their pretreatment weights.

[3] = Solubility problem noted during the assays; type: physicochemical; details: noted under the 14C column, unit inferred; read-out: Sol Prob (solubility problem at concentration)
HCT116 cells = assay: XTT cytotoxicity assay, HCT116 (H); type: cell-based; details: Homo sapiens, HCT-116
Protocol: (§1) XTT Cytotoxicity Assay The XTT assay is a non-radioactive alternative for the [^51Cr] release cytotoxicity assay. XTT is a tetrazolium salt that is reduced to a formazan dye only by metabolically active, viable cells. The reduction of XTT is measured spectrophotometrically as OD490-OD650. To measure the cytotoxicity of specific compounds against cancer cells, 9×10^3 MCF-7 human breast cancer cells (shown in the tables as “(M)”), obtained from the American Type Culture Collection are plated per well in 96 well plates in DMEM medium with 10% fetal bovine serum, insulin, penicillin, and streptomycin. Following overnight culture at 37° C. and 5% CO2, the compounds to be tested, dissolved in DMSO, are added to the wells in 1 μl volume at the following concentrations: 80, 40, 20, 10, 5, 2.5, 1.25, and 0.625 μg/ml in triplicate. Additional concentrations are tested if required. 1 μl of DMSO is added to triplicate wells are the vehicle control. C75 is run at 40, 20, […], and 5 μg/ml in triplicate as positive controls. After 72 hours of incubation, cells are incubated for 4 hours with the XTT reagent as per manufacturer's instructions (Cell Proliferation Kit II (XTT) Roche). Plates are read at OD490 and OD650 on a Molecular Devices SpectraMax Plus Spectrophotometer. Three wells containing the XTT reagent without cells serve as the plate blank. XTT data are reported as OD490-OD650. Averages and standard error of the mean are computed using SOFTmax Pro software (Molecular Dynamics). The IC50 for the compounds is defined as the concentration of drug leading to a 50% reduction in OD490-OD650 compared to controls. The OD490-OD650 are computed by the SOFTmax PRO software (Molecular Devices) for each compound concentration. IC50 is calculated by linear regression, plotting the FAS activity as percent of control versus drug concentrations. Linear regression, best-fit line, r^2, and 95% confidence intervals are determined using Prism Version 3.0 (Graph Pad Software). The test was also run against OVCAR3 cells (“OV”), and HCT116 cells (“H”).

OVCAR3 cells = assay: XTT cytotoxicity assay, OVCAR3 (OV); type: cell-based; details: Homo sapiens, OVCAR-3, unit given as ml
Protocol: as §1

[4] = test system: MCF-7 human breast cancer cells; assay: XTT cytotoxicity assay, MCF-7 (M); type: cell-based; details: MCF7, MCF-7, 72 hours
Protocol: XTT Cytotoxicity Assay The XTT assay is a non-radioactive alternative for the [^51Cr] release cytotoxicity assay. XTT is a tetrazolium salt that is reduced to a formazan dye only by metabolically active, viable cells. The reduction of XTT is measured spectrophotometrically as OD490-OD650. To measure the cytotoxicity of specific compounds against cancer cells, 9×10^3 MCF-7 human breast cancer cells (shown in the tables as “(M)”), obtained from the American Type Culture Collection are plated per well in 96 well plates in DMEM medium with 10% fetal bovine serum, insulin, penicillin, and streptomycin. Following overnight culture at 37° C. and 5% CO2, the compounds to be tested, dissolved in DMSO, are added to the wells in 1 μl volume at the following concentrations: 80, 40, 20, 10, 5, 2.5, 1.25, and 0.625 μg/ml in triplicate. Additional concentrations are tested if required. 1 μl of DMSO is added to triplicate wells are the vehicle control. C75 is run at 40, 20, […], and 5 μg/ml in triplicate as positive controls. After 72 hours of incubation, cells are incubated for 4 hours with the XTT reagent as per manufacturer's instructions (Cell Proliferation Kit II (XTT) Roche). Plates are read at OD490 and OD650 on a Molecular Devices SpectraMax Plus Spectrophotometer. Three wells containing the XTT reagent without cells serve as the plate blank. XTT data are reported as OD490-OD650. Averages and standard error of the mean are computed using SOFTmax Pro software (Molecular Dynamics). The IC50 for the compounds is defined as the concentration of drug leading to a 50% reduction in OD490-OD650 compared to controls. The OD490-OD650 are computed by the SOFTmax PRO software (Molecular Devices) for each compound concentration. IC50 is calculated by linear regression, plotting the FAS activity as percent of control versus drug concentrations. Linear regression, best-fit line, r^2, and 95% confidence intervals are determined using Prism Version 3.0 (Graph Pad Software).

Structure (SMILES): C/C=C/C/C=C/CCC(=O)[C@H]1O[C@H]1C(N)=O [cerulenin, (2S,3R)-2,3-epoxy-4-oxo-7,10 dodecadienoyl amide]
- concentration at which viral HIV protease is inhibited (viral HIV protease): 5 mg/mL

Structure (SMILES): CCCC=CCC=CC=CC=NN=NO [Triacsin C, 1-hydroxy-3-(E,E,E-2′,4′,7′-undecatrienylidine) triazene]
- growth inhibition of Vero cells (Vero cells): inhibit growth
- growth inhibition of Hela cells (Hela cells): inhibit growth
- growth inhibition in Raji cells (Raji cells): growth inhibition
- IC50 [1]: 8.7 µM

Structure (SMILES): CCCCCCCCC1(C)SC(=O)C=C1OCC(=O)Nc1ccc(F)cc1 (stereo not drawn)
- Emax at 1.56 µg/mL ([2]; Homo sapiens, MCF7, at 1.56 μg/ml, read-out: FAO Max): 106%
- FAO SC 150 ([2]; concentration leading to 150% of control acid soluble products, Neg = threshold not reached): Neg
- Weight Loss (Weight loss screen): 60 mg/ml: 2.4% (day 1)
- solubility [3]: 80 µg/mL (≈ 203 µM)
- IC50 (HCT116 cells): 5.6 µg/mL (≈ 14.2 µM)
- IC50 (OVCAR3 cells): 11.1 µg/mL (≈ 28.2 µM)
- IC50 [4]: 6.5 µg/mL (≈ 16.5 µM)
